Results on 22 compounds are retold here after patent publication US8067447B2, “Modulators of glucocorticoid receptor, AP-1, and/or NF-κB activity and use thereof” (Bristol-Myers Squibb Company, priority 2006, dated 2011).

In assay [1] the target is T1, human full-length glucocorticoid receptor (Homo sapiens, UniProt P04150).
T1 construct: a cell lysate containing recombinantly expressed human full-length glucocorticoid receptor; purchased PanVera Co., Madison, Wis; P2816
T1 sequence (P04150 1-777): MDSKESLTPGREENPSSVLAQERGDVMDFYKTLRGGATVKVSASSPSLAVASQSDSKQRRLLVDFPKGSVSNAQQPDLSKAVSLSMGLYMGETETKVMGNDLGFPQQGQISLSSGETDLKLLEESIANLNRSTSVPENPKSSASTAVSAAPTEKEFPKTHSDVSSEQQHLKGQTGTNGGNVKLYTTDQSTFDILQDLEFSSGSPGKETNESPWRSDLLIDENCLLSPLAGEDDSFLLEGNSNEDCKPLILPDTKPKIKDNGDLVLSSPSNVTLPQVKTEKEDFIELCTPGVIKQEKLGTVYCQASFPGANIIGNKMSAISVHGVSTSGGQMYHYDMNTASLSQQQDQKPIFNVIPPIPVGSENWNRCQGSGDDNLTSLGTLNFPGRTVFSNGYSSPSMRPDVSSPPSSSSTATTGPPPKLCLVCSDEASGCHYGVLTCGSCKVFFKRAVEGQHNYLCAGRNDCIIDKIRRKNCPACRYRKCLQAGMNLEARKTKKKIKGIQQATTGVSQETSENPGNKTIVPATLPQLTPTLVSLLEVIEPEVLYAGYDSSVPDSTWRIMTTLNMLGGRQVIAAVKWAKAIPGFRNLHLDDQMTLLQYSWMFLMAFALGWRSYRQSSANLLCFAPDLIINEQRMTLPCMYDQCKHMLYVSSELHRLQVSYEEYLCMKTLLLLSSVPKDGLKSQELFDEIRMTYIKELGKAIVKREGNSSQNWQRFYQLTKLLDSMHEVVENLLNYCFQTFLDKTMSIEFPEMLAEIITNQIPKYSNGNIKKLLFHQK
Nature of the assay: Glucocorticoid Receptor Binding Assay (II), fluorescence polarization competitor kit (Fluormone GS1). The settings on record: cell lysate with recombinant human full-length GR, 1 nM Fluormone GS1, FP. The gist of the method: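 Recombinant full-length human GR in cell lysate competed against 1 nM fluorescent glucocorticoid tracer (Fluormone GS1) with or without test compound. Fluorescence polarization read after 1 h at room temperature.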
On the technique in general: Fluorescence polarisation rises when a labelled molecule tumbles more slowly, as on binding a larger partner.

The test system of assay [2] is AP-1 induced transcriptional activity. The assay can be described thus: Cellular Transrepressional Assay (AP-1 luciferase reporter in A549 cells, PMA-activated). It is filed as cell-based. To be noted: Homo sapiens, A549, 7 h, A549 cells with 7x AP-1 luciferase reporter, 10 ng/ml PMA, read-out: AP-1 (EC50, nM) (Cellular Transrepression Assay). Summed up: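 Stable A549 AP-1 (7× sites) luciferase reporter line stimulated with 10 ng/ml PMA plus test molecules (0.1 nM to 40 μM) for 7 h. Luminescence read after 10 min with luciferase reagent; EC50 from % decrease of PMA-induced signal.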
(In general: A reporter such as luciferase makes a cellular process visible.)

Broadly, the Ki is the equilibrium dissociation constant of an inhibitor or competing ligand from its target. What is called EC50 is the concentration needed to bring the measured effect to its halfway point. Take `CC(C)(CO)CNC(=O)C(C)(C)C(Cc1ccccc1)c1ccc2c(cnn2-c2ccc(F)cc2)c1` (centres unmarked) [Example 134, 3-(1-(4-fluorophenyl)-1H-indazol-5-yl)-N-(3-hydroxy-2,2-dimethylpropyl)-2,2-dimethyl-4-phenylbutanamide]: in assay [1], the Ki stood at 6 nM. For the same compound, the EC50 in assay [2] is over 10000 nM.

Take `CC(C)(C(=O)N[C@@H]1CCC[C@H]1O)[C@@H](c1ccccc1)c1ccc2c(cnn2-c2ccc(F)cc2)c1` [Example 135, (S)-3-(1-(4-fluorophenyl)-1H-indazol-5-yl)-N-(2-hydroxycyclopentyl)-2,2-dimethyl-3-phenylpropanamide]: the Ki in assay [1] amounted to 0.6 nM. Moreover, the EC50 in assay [2] worked out at 40 nM.

Regarding `Cn1cnc(NC(=O)CC(c2ccccc2)c2ccc3c(cnn3-c3ccc(F)cc3)c2)n1` (centres unmarked) [Example 137, 3-(1-(4-Fluorophenyl)-1H-indazol-5-yl)-N-(1-methyl-1H-1,2,4-triazol-3-yl)-3-phenylpropanamide], in assay [1], the inhibition constant Ki was 11 nM. Further, the EC50 in assay [2] worked out at 833 nM.

With `CC(C)(C(=O)Nc1nccs1)C(Cc1ccccc1)c1ccc2c(cnn2-c2ccc(F)cc2)c1` (centres unmarked) [Example 138, 3-(1-(4-Fluorophenyl)-1H-indazol-5-yl)-2,2-dimethyl-4-phenyl-N-(thiazol-2-yl)butanamide], the Ki in assay [1] is 1.9 nM. Besides, the EC50 in assay [2] worked out at 223 nM.

Take `CC(C)/C=C(\c1ccc2c(cnn2-c2ccc(F)cc2)c1)C(C)(C)C(=O)Nc1nncs1` [Example 139, (E)-3-(1-(4-Fluorophenyl)-1H-indazol-5-yl)-2,2,5-trimethyl-N-(1,3,4-thiadiazol-2-yl)hex-3-enamide]: the Ki in assay [1] came out at 4.7 nM. In addition, in assay [2], the EC50 stood at 2500 nM.

In the case of `CC(C)(C(=O)Nc1nncs1)C(OCc1ccccc1)c1ccc2c(cnn2-c2ccc(F)cc2)c1` (centres unmarked) [Example 140, 3-(Benzyloxy)-3-(1-(4-fluorophenyl)-1H-indazol-5-yl)-2,2-dimethyl-N-(1,3,4-thiadiazol-2-yl)propanamide], the Ki in assay [1] was 1.6 nM. The EC50 in assay [2] worked out at 4 nM.

Consider `CCC(C(=O)Nc1nncs1)C(c1ccccc1)c1ccc2c(cnn2-c2ccc(F)cc2)c1` (centres unmarked) [Example 142, 2-((1-(4-Fluorophenyl)-1H-indazol-5-yl)(phenyl)methyl)-N-(1,3,4-thiadiazol-2-yl)butanamide], for which the Ki in assay [1] was found to be 1.1 nM. The EC50 in assay [2] is 0.55 nM.

`CCCC(C(=O)Nc1nncs1)C(c1ccccc1)c1ccc2c(cnn2-c2ccc(F)cc2)c1` (centres unmarked) [Example 143, 2-((1-(4-fluorophenyl)-1H-indazol-5-yl)(phenyl)methyl)-N-(1,3,4-thiadiazol-2-yl)pentanamide]: the Ki in assay [1] amounted to 1.7 nM. In addition, the EC50 in assay [2] amounted to 2 nM.

As to `CC(C)C(C(=O)Nc1nncs1)C(c1ccccc1)c1ccc2c(cnn2-c2ccc(F)cc2)c1` (centres unmarked) [Example 144, 2-((1-(4-fluorophenyl)-1H-indazol-5-yl)(phenyl)methyl)-3-methyl-N-(1,3,4-thiadiazol-2-yl)butanamide], the Ki in assay [1] was determined as 2 nM. The EC50 in assay [2] amounted to 2 nM.

Consider `O=C(Nc1nncs1)C(Cc1ccccc1)C(c1ccccc1)c1ccc2c(cnn2-c2ccc(F)cc2)c1` (centres unmarked) [Example 146, 2-benzyl-3-(1-(4-fluorophenyl)-1H-indazol-5-yl)-3-phenyl-N-(1,3,4-thiadiazol-2-yl)propanamide], for which the Ki in assay [1] is 1.5 nM. For the same compound, the concentration giving a half-maximal response (EC50) in assay [2] was 2 nM.

On to `O=C(Nc1nncs1)C(C1CCCC1)C(c1ccccc1)c1ccc2c(cnn2-c2ccc(F)cc2)c1` (centres unmarked) [Example 147, 2-cyclopentyl-3-(1-(4-fluorophenyl)-1H-indazol-5-yl)-3-phenyl-N-(1,3,4-thiadiazol-2-yl)propanamide], for which the Ki in assay [1] turned out to be 2.3 nM. Also, the EC50 in assay [2] came to 2 nM.

Take `O=C(Nc1nncs1)C(C1CCCCC1)C(c1ccccc1)c1ccc2c(cnn2-c2ccc(F)cc2)c1` (centres unmarked) [Example 148, 2-cyclohexyl-3-(1-(4-fluorophenyl)-1H-indazol-5-yl)-3-phenyl-N-(1,3,4-thiadiazol-2-yl)propanamide]: the Ki in assay [1] came to 6.4 nM. Besides, the EC50 in assay [2] is 6 nM.

Turning to `CCC(CC)(C(=O)Nc1nncs1)C(c1ccccc1)c1ccc2c(cnn2-c2ccc(F)cc2)c1` (centres unmarked) [Example 149, 2-ethyl-2-((1-(4-fluorophenyl)-1H-indazol-5-yl)(phenyl)methyl)-N-(1,3,4-thiadiazol-2-yl)butanamide], in assay [1], the Ki is 4.7 nM. For the same compound, in assay [2], the EC50 amounted to 130 nM.

`O=C(Nc1nncs1)C1(C(c2ccccc2)c2ccc3c(cnn3-c3ccc(F)cc3)c2)CCCCC1` (centres unmarked) [Example 150, 1-((1-(4-fluorophenyl)-1H-indazol-5-yl)(phenyl)methyl)-N-(1,3,4-thiadiazol-2-yl)cyclohexanecarboxamide]: the Ki in assay [1] is 4 nM. The EC50 in assay [2] was found to be 13 nM.

Turning to `COC(=O)c1ccc(C(c2ccc3c(cnn3-c3ccc(F)cc3)c2)C(C)C(=O)Nc2nncs2)cc1` (centres unmarked) [Example 153, Methyl 4-(3-(1,3,4-thiadiazol-2-ylamino)-1-(1-(4-fluorophenyl)-1H-indazol-5-yl)-2-methyl-3-oxopropyl)benzoate], the Ki in assay [1] came to 4.3 nM. Moreover, in assay [2], the EC50 was found to be 27 nM.

For the compound `CC(=O)OCC(C)(C(=O)Nc1nncs1)C(c1ccccc1)c1ccc2c(cnn2-c2ccc(F)cc2)c1` (centres unmarked) [Example 154, 3-(1,3,4-Thiadiazol-2-ylamino)-2-((1-(4-fluorophenyl)-1H-indazol-5-yl)(phenyl)methyl)-2-methyl-3-oxopropyl acetate], the Ki in assay [1] turned out to be 2.6 nM. Moreover, the EC50 in assay [2] was 15 nM.

`CC(CO)(C(=O)Nc1nncs1)C(c1ccccc1)c1ccc2c(cnn2-c2ccc(F)cc2)c1` (centres unmarked) [Example 155, 3-(1-(4-Fluorophenyl)-1H-indazol-5-yl)-2-(hydroxymethyl)-2-methyl-3-phenyl-N-(1,3,4-thiadiazol-2-yl)propanamide]: the Ki in assay [1] is 4.3 nM. Besides, the half-maximal effective concentration (EC50) in assay [2] is 1770 nM.

In the case of `CC(C)(C(=O)Nc1nncs1)[C@@H](c1ccccc1)c1ccc2c(cnn2-c2ccc(F)cc2C(N)=O)c1` [Example 156, 2-(5-((S)-3-(1,3,4-Thiadiazol-2-ylamino)-2,2-dimethyl-3-oxo-1-phenylpropyl)-1H-indazol-1-yl)-5-fluorobenzamide], the inhibition constant (Ki) in assay [1] worked out at 22 nM. The EC50 in assay [2] came to 135 nM.

As to `CN(C)C(=O)c1cc(F)ccc1-n1ncc2cc([C@H](c3ccccc3)C(C)(C)C(=O)Nc3nncs3)ccc21` [Example 158, 2-(5-((S)-3-(1,3,4-Thiadiazol-2-ylamino)-2,2-dimethyl-3-oxo-1-phenylpropyl)-1H-indazol-1-yl)-5-fluoro-N,N-dimethylbenzamide], in assay [1], the Ki amounted to 825 nM. The half-maximal effective concentration (EC50) in assay [2] stood at 2500 nM.

As to `CC(C)(C(=O)Nc1nncs1)[C@@H](c1ccccc1)c1ccc2c(cnn2-c2ccc(F)cc2N)c1` [Example 159, (3S)-3-(1-(2-Amino-4-fluorophenyl)-1H-indazol-5-yl)-2,2-dimethyl-3-phenyl-N-(1,3,4-thiadiazol-2-yl)propanamide], the Ki in assay [1] was found to be 0.35 nM. For the same compound, the EC50 in assay [2] was 73 nM.

On to `CN(C)C(=O)Nc1cc(F)ccc1-n1ncc2cc([C@H](c3ccccc3)C(C)(C)C(=O)Nc3nncs3)ccc21` [Example 160, (3S)-3-(1-(2-(3,3-Dimethylureido)-4-fluorophenyl)-1H-indazol-5-yl)-2,2-dimethyl-3-phenyl-N-(1,3,4-thiadiazol-2-yl)propanamide], for which the Ki in assay [1] turned out to be 25 nM. Moreover, the EC50 in assay [2] came to 234 nM.

Regarding `CC(C)(C(=O)Nc1nncs1)[C@@H](c1ccccc1)c1ccc2c(cnn2-c2ccc(F)cc2NC(N)=O)c1` [Example 161, (3S)-3-(1-(4-Fluoro-2-ureidophenyl)-1H-indazol-5-yl)-2,2-dimethyl-3-phenyl-N-(1,3,4-thiadiazol-2-yl)propanamide], the inhibition constant (Ki) in assay [1] is 32 nM. The concentration giving a half-maximal response (EC50) in assay [2] amounted to 5000 nM.
